# ChEMBL document CHEMBL1146245, “Antitumor agents. 258. Syntheses and evaluation of dietary antioxidant--taxoid conjugates as novel cytotoxic agents” (2007)
# Columns and labels:
# Type in all cases: functional
# [1] = test system: 1A9; experiment: Cytotoxicity against human 1A9 cells by sulforhodamine B assay; conditions: read-out: ED50 (the source's name)
# [2] = test system: KB; experiment: Cytotoxicity against human KB cells by sulforhodamine B assay; conditions: read-out: ED50 (the source's name)
# [3] = test system: A549; experiment: Cytotoxicity against human A549 cells; conditions: read-out: ED50 (the source's name)
# [4] = test system: HCT-8; experiment: Cytotoxicity against human HCT8 cells; conditions: read-out: ED50 (the source's name)
# [5] = test system: A-431; experiment: Cytotoxicity against human A431 cells; conditions: read-out: ED50 (the source's name)
# [6] = Cytotoxicity against MDR human KB-VIN cells expressing P-glycoprotein; conditions: KBVIN, read-out: ED50 (the source's name)
smiles,measurement,setting,value
CC(=O)O[C@H]1C(=O)[C@@]2(C)[C@H]([C@H](OC(=O)c3ccccc3)[C@]3(O)C[C@H](OC(=O)[C@H](O)[C@@H](NC(=O)c4ccccc4)c4ccccc4)C(C)=C1C3(C)C)[C@]1(OC(C)=O)CO[C@@H]1C[C@@H]2O [PACLITAXEL],EC50,[1],0.001 µg/mL
same,EC50,[2],0.002 µg/mL
same,EC50,[3],0.02 µg/mL
same,EC50,[4],0.06 µg/mL
same,EC50,[5],0.01 µg/mL
same,EC50,[6],0.2 µg/mL
